Drawing on US20090264415A2 (priority 2004, published 2009), this text covers IC50 for 24 compounds.

As usually defined, the IC50 is the concentration needed to halve the response being measured.

Molecules are shown by their SMILES.

The test system of the assay is peripheral blood mononuclear cells (PBMC) stimulated with allogeneic PBMC or EBV-transformed human B cells (RPMI1788). Nature of the assay: Mixed lymphocyte reaction (MLR) assay. Format: cell-based. Particulars: Homo sapiens, RPMI-1788; MLR assay of example 319; read-out: MLR IC50. As for the experimental part:
Pyrido[3,2-d]pyrimidine derivatives were first dissolved (10 mM) in dimethyl-sulfoxide (hereinafter referred as DMSO) and further diluted in culture medium before use for the following in vitro experiments. […] Some pyrido[3,2-d]pyrimidine derivatives described herein were tested in the following mixed lymphocyte reaction (MLR) assay.
Peripheral blood mononuclear cells (hereinafter referred as PBMC) were isolated from heparinized peripheral blood by density gradient centrifugation over Lymphoprep (Nycomed, Maorstua, Norway). Allogeneic PBMC or Eppstein-Barr Virus-transformed human B cells [commercially available under the trade name RPM11788 (ATCC name CCL156)] which strongly express B7-1 and B7-2 antigens were used as stimulator cells after irradiation with 30 Gy. MLR was performed in triplicate wells. After 5 days incubation at 37° C., 1 μCi [^3H]-thymidine was added to each cup. After a further 16 hours incubation, cells were harvested and counted in a β-counter. Inhibition of proliferation by a compound described in some of the present examples was counted while using the formula: [formula] wherein cpm is the thymidine count per minute. The MLR assay is regarded by those skilled in the art as an in vitro analogue of the transplant rejection since it is based on the recognition of allogeneic major histocompatibility antigens on the stimulator leukocytes, by responding lymphocytes.
For `Nc1nc(N2CCN(C(=O)COc3ccc(Cl)cc3)CC2)c2nc(-c3c(F)cccc3F)ccc2n1` [Example 428, 2-amino-4-[4-(4-chlorophenoxyacetyl)piperazin-1-yl]-6-(2,6-difluorophenyl)pyrido-[3,2-d]pyrimidine], the IC50 turned out to be 300 nM.
For `Nc1nc(N2CCN(C(=O)COc3ccc(Cl)cc3)CC2)c2nc(-c3cc(Cl)ccc3Cl)ccc2n1` [Example 429, 2-amino-4-[4-(4-chlorophenoxyacetyl)piperazin-1-yl]-6-(2,5-dichlorophenyl)-pyrido-[3,2-d]pyrimidine], the IC50 is 500 nM.
For `Nc1nc(N2CCN(C(=O)COc3ccc(Cl)cc3)CC2)c2nc(-c3ccccc3Cl)ccc2n1` [Example 430, 2-amino-4-[4-(4-chlorophenoxyacetyl)piperazin-1-yl]-6-(2-chlorophenyl)pyrido-[3,2-d]pyrimidine], the IC50 was 40 nM.
With `Nc1nc(N2CCN(C(=O)COc3ccc(Cl)cc3)CC2)c2nc(-c3cc(Cl)ccc3F)ccc2n1` [Example 431, 2-amino-4-[4-(4-chlorophenoxyacetyl)piperazin-1-yl]-6-(5-chloro-2-fluorophenyl)-pyrido-[3,2-d]pyrimidine], the IC50 was found to be 330 nM.
For `Nc1nc(N2CCN(C(=O)COc3ccc(Cl)cc3)CC2)c2nc(-c3cc(F)c(F)c(F)c3)ccc2n1` [Example 432, 2-amino-4-[4-(4-chlorophenoxyacetyl)piperazin-1-yl]-6-(3,4,5-trifluorophenyl)-pyrido-[3,2-d]pyrimidine], the IC50 amounted to 90 nM.
`Cc1cccc(C)c1-c1ccc2nc(N)nc(N3CCN(C(=O)COc4ccc(Cl)cc4)CC3)c2n1` [Example 433, 2-amino-4-[4-(4-chlorophenoxyacetyl)piperazin-1-yl]-6-(2,6-dimethylphenyl)-pyrido-[3,2-d]pyrimidine]: the IC50 was determined as 3600 nM.
Consider `CC(C)(C)OC(=O)NCC(=O)N1CCN(c2nc(N)nc3ccc(-c4ccc(F)cc4)nc23)CC1` [Example 434, 2-amino-4-{4-[N-(tert-butoxycarbonyl)-glycyl]-piperazin-1-yl}-6-(4-fluorophenyl)-pyrido[3,2-d]pyrimidine], for which the IC50 was 93 nM.
The result for `CS(=O)(=O)Nc1cccc(-c2ccc3nc(N)nc(N4CCN(C(=O)COc5ccc(Cl)cc5)CC4)c3n2)c1` [Example 435, 2-amino-4-[4-(4-chlorophenoxyacetyl)piperazin-1-yl]-6-[N-3-(methanesulfonamidophenyl)]-pyrido-[3,2-d]pyrimidine] reads 6 nM.
For `Nc1nc(N2CCN(C(=O)CO)CC2)c2nc(-c3ccc(F)cc3)ccc2n1` [Example 437, 2-amino-4-[4-(2-hydroxyacetyl)piperazin-1-yl]-6-(4-fluorophenyl)-pyrido[3,2-d]pyrimidine] the value was 1600 nM; for `Nc1nc(N2CCN(C(=O)COc3ccc(Cl)cc3)CC2)c2nc(-c3c(Cl)cccc3Cl)ccc2n1` [Example 438, 2-amino-4-[4-(4-chlorophenoxyacetyl)piperazin-1-yl]-6-(2,6-dichlorophenyl)-pyrido-[3,2-d]pyrimidine], 700 nM.
The result for `Nc1nc(N2CCN(C(=O)COc3ccc(Cl)cc3)CC2)c2nc(-c3ccc(OC(F)(F)F)cc3)ccc2n1` [Example 439, 2-amino-4-[4-(4-chlorophenoxyacetyl)piperazin-1-yl]-6-(4-trifluoromethoxyphenyl)-pyrido-[3,2-d]pyrimidine] reads 300 nM; that for `Nc1nc(N2CCN(C(=O)COc3ccc(Cl)cc3)CC2)c2nc(-c3cc(F)ccc3F)ccc2n1` [Example 440, 2-amino-4-[4-(4-chlorophenoxyacetyl)piperazin-1-yl]-6-(2,5-difluorophenyl)pyrido-[3,2-d]pyrimidine], 70 nM; that for `Nc1nc(N2CCN(C(=O)COc3ccc(Cl)cc3)CC2)c2nc(-c3ccc(CO)cc3)ccc2n1` [Example 441, 2-amino-4-[4-(4-chlorophenoxyacetyl)piperazin-1-yl]-6-[4-(hydroxymethyl)phenyl]pyrido-[3,2-d]pyrimidine], 8 nM.
As to `Nc1nc(N2CCN(C(=O)COc3ccc(Cl)cc3)CC2)c2nc(-c3c(F)cccc3Cl)ccc2n1` [Example 442, 2-amino-4-[4-(4-chlorophenoxyacetyl)piperazin-1-yl]-6-(2-chloro-6-fluorophenyl)-pyrido-[3,2-d]pyrimidine], the IC50 was 300 nM.
The result for `CNC(=O)c1ccc(-c2ccc3nc(N)nc(N4CCN(C(=O)COc5ccc(Cl)cc5)CC4)c3n2)cc1` [Example 443, 2-amino-4-[4-(4-chlorophenoxyacetyl)piperazin-1-yl]-6-[4-(methylaminocarbonyl)phenyl]-pyrido-[3,2-d]pyrimidine] reads 7 nM; that for `NCC(=O)N1CCN(c2nc(N)nc3ccc(-c4ccc(F)cc4)nc23)CC1` [Example 444, 2-amino-4-[4-(aminoacetyl)-piperazin-1-yl]-6-(4-fluorophenyl)-pyrido[3,2-d]pyrimidine], 2300 nM.
For `Cc1ccc(-c2ccc3nc(N)nc(N4CCN(C(=O)COc5ccc(Cl)cc5)CC4)c3n2)cc1` [Example 445, 2-amino-4-[4-(4-chlorophenoxyacetyl)piperazin-1-yl]-6-(4-methylphenyl)pyrido-[3,2-d]pyrimidine] the value was 29 nM; for `CC(=O)c1ccc(-c2ccc3nc(N)nc(N4CCN(C(=O)COc5ccc(Cl)cc5)CC4)c3n2)cc1` [Example 446, 2-amino-4-[4-(4-chlorophenoxyacetyl)piperazin-1-yl]-6-(4-acetylphenyl)pyrido-[3,2-d]pyrimidine], 11 nM; for `NCc1ccc(-c2ccc3nc(N)nc(N4CCN(C(=O)COc5ccc(Cl)cc5)CC4)c3n2)cc1` [Example 447, 2-amino-4-[4-(4-chlorophenoxyacetyl)piperazin-1-yl]-6-[4-(aminomethyl)phenyl]pyrido-[3,2-d]pyrimidine], 400 nM.
The result for `Nc1nc(N2CCN(C(=O)COc3ccc(Cl)cc3)CC2)c2nc(-c3ccc(C(=O)NC4CC4)cc3)ccc2n1` [Example 448, 2-amino-4-[4-(4-chlorophenoxyacetyl)piperazin-1-yl]-6-[4-(cyclopropylaminocarbonyl)phenyl]-pyrido-[3,2-d]pyrimidine] reads 15 nM; that for `CC(=O)Nc1ccc(-c2ccc3nc(N)nc(N4CCN(C(=O)COc5ccc(Cl)cc5)CC4)c3n2)cc1` [Example 449, 2-amino-4-[4-(4-chlorophenoxyacetyl)piperazin-1-yl]-6-[4-(acetamido)phenyl]-pyrido-[3,2-d]pyrimidine], 39 nM.
As for `CCNC(=O)N1CCN(c2nc(N)nc3ccc(-c4ccc(F)cc4)nc23)CC1` [Example 450, 2-amino-4-[4-(N-ethylcarbamoyl)-piperazin-1-yl]-6-(4-fluorophenyl)-pyrido[3,2-c]pyrimidine], the IC50 is 500 nM.
`CCCCNC(=O)N1CCN(c2nc(N)nc3ccc(-c4ccc(F)cc4)nc23)CC1` [Example 451, 2-amino-4-[4-(N-butylcarbamoyl)-piperazin-1-yl]-6-(4-fluorophenyl)-pyrido[3,2-d]pyrimidine]: the IC50 was determined as 200 nM.
Take `CNC(=O)N1CCN(c2nc(N)nc3ccc(-c4ccc(F)cc4)nc23)CC1` [Example 452, 2-amino-4-[4-(N-methylcarbamoyl)-piperazin-1-yl]-6-(4-fluorophenyl)-pyrido[3,2-d]pyrimidine]: the IC50 was 400 nM.
